Test results as given in US20260151538A1, “DIFFERENTIATION AND REPROGRAMMING OF CHONDROCYTE” (ADA Forsyth Institute, Inc., priority 2022, published 2026).

Columns and labels:
ATDC5 cells = assay: ATDC5 micro-mass culture chondrogenesis, alcian blue staining; type: cell-based, mouse; conditions: ATDC5 cells in micro-mass culture; DHA at 0, 1, 5, 25 and 125 μM; quantified with ImageJ
Text: To further investigate the beneficial effects of GATA3 stimulation on cartilage regeneration, the inventors examined GATA3 activators in chondrogenesis. Using the ATDC5 cell line derived from mouse teratocarcinoma (undifferentiated embryonal carcinoma that can give rise to all three germ layers), the inventors first cultured the cells in micro-mass followed by differentiation into chondrocytes. Next, the inventors testes if the addition of GATA3 activators to the micro-mass culture could promote chondrogenesis. Staining was then performed to detect chondrogenic cells, which were positive for alcian blue. Imaging and quantitative analysis was then carried out to determine the percentage of the positively stained area using ImageJ.

GATA3 = conditions: literature reports (Attakpa 2009; Gocke 2009; Ahmad 2017); cited from earlier work

Structure (SMILES) | chondrocyte differentiation / chondrogenesis (percentage of alcian blue positively stained area) (ATDC5 cells) | GATA3 expression (transcripts and proteins) (GATA3)
Cc1ccc(C)c(OCCCC(C)(C)C(=O)O)c1 [Gemfibrozil] | substantial stimulated effects on chondrogenesis | enhance GATA3 expression
Cc1cccc(Nc2cc(Cl)nc(SCC(=O)O)n2)c1C [Pirinixic acid] | substantial stimulated effects on chondrogenesis | enhance GATA3 expression
Oc1ccc(-c2nc(-c3ccncc3)c(-c3ccc(F)cc3)[nH]2)cc1 [SB202190] | substantial stimulated effects on chondrogenesis | enhance GATA3 expression
Nc1nc2c(cnn2CCc2ccccc2)c2nc(-c3ccco3)nn12 [SCH 58261] |  | enhance GATA3 expression
N#CC(=C(/N)Sc1ccccc1N)/C(C#N)=C(\N)Sc1ccccc1N [U0126] |  | enhance GATA3 expression
